What was measured:
[1] = test system: RPMI-8226 MM cells; assay: Chemosensitization coculture of RPMI-8226 MM cells with stromal MS-5 cells; assay type: cell-based; conditions: 100 nM NOX-A12, 1 μM F-ara-A, 40 hours
Method: In order to mimic the in vivo interaction of the BM microenvironment with leukemia cells, an in vitro coculture system with murine BM stromal MS-5 cells and the multiple myeloma (abbr. MM) cell line RPMI 8226 was established. Aim of the experiment was to show whether SDF-1 binding […] NOX-A12 sensitizes MM cells in coculture with stromal cells to effects of chemotherapeutic agents. Stromal MS-5 cells secreting SDF 1 were incubated with SDF-1 binding […] NOX-A12 or the non-functional revNOX-A12. The MM cell line RPMI-8226 was added to the confluent stromal cell layer. The cells were then incubated with the chemotherapeutic agent F ara A (Fludarabine) for 40 hours. Cell Viability viability was measured. The murine stromal cell line MS-5 (ACC 441) was purchased from the DSMZ, the Multiple Myeloma cell line RPMI8226 (CCL-155) was purchased from the ATCC. The Multiple Myeloma cell line RPMI8226 was maintained in RPMI medium 1640 GlutaMAX (Invitrogen) supplemented with 10% FBS (Biochrom) and penicillin-streptomycin, the MS-5 cells were cultured in MEM alpha GlutaMAX (Invitrogen) with 10% FBS and penicillin-streptomycin. […] Cell viability and cell number were determined by Flow Cytometry using the Guava EasyCyte 6HT/2L (Millipore).

[2] = test system: stromal MS-5 cells; assay: Viability of stromal MS-5 cells in the coculture; assay type: cell-based, murine; conditions: data not shown
Method: The murine stromal cell line MS-5 (ACC 441) was purchased from the DSMZ, the Multiple Myeloma cell line RPMI8226 (CCL-155) was purchased from the ATCC. The Multiple Myeloma cell line RPMI8226 was maintained in RPMI medium 1640 GlutaMAX (Invitrogen) supplemented with 10% FBS (Biochrom) and penicillin-streptomycin, the MS-5 cells were cultured in MEM alpha GlutaMAX (Invitrogen) with 10% FBS and penicillin-streptomycin. For chemosensitization coculture experiments stromal MS-5 cells were seeded the day before onto 24-well plates (the inner eight wells) at a concentration of 8×10^4/mL/well in MEM alpha GlutaMAX medium (+10% FBS) and incubated at 37° C. in 5% CO2. The confluent stromal cell layer was washed and 0.5 mL RPMI medium 1640 (+1% FBS) was added to the wells. SDF-1 binding […] NOX-A12 or revNOX-A12 was subsequently added to the wells to a final concentration of 100 nM and incubated for four hours. 3.5×10^5 RPMI8226 cells in RPMI medium 1640 (+1% FBS) were added to the stromal cell layer. Four hours later, 1 μ[…] (Sigma Aldrich) was added to the cells when indicated. After 40 hours of incubation the cells were collected in 15 mL tubes, first the supernatant was harvested and then the attached cells were trypsinized including MS-5 cells. […] Cell viability and cell number were determined by Flow Cytometry using the Guava EasyCyte 6HT/2L (Millipore).

[3] = target: CXCR4 (Homo sapiens, UniProt P61073); conditions: MM cells in vivo, CXCR4 blockade; cited from earlier work
[4] = target: CXCR4 (Mus musculus, UniProt P70658); conditions: GBM mouse xenograft, irradiation; cited from earlier work
Sequence of CXCR4 (Mus musculus, UniProt P70658) (P70658 whole entry): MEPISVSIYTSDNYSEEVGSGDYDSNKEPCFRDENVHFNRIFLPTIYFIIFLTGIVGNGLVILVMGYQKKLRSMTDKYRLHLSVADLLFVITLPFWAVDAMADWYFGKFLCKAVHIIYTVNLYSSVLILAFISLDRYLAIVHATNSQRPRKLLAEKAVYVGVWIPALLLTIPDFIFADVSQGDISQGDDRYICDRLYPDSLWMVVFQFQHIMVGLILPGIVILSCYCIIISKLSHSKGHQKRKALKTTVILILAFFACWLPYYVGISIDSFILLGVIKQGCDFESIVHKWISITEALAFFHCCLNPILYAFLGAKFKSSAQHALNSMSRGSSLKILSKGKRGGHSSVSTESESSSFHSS

Sequence of CXCR4 (Homo sapiens, UniProt P61073) (P61073 whole entry, species assumed): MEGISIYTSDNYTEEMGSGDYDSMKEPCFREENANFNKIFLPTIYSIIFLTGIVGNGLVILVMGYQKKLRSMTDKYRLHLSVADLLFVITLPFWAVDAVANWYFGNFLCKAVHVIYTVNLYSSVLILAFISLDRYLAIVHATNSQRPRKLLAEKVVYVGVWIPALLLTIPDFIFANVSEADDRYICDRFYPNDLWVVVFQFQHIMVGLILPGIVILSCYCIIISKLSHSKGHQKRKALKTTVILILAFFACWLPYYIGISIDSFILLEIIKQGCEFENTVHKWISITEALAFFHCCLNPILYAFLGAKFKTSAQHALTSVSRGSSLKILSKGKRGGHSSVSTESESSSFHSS

Row | Compound | cell viability of RPMI-8226 cells cocultured with stromal MS-5 cells [1] | viability of stromal MS-5 cells [2] | tumor reduction induced by bortezomib [3] | influx of BMDCs in the irradiated tumor [4]
1 | Nc1nc(F)nc2c1ncn2[C@@H]1O[C@H](CO)[C@@H](O)[C@@H]1O [F-ara-A, Fludarabine, reference compound] | no significant effect | neither affected | – | –
2 | c1cc(CN2CCCNCCNCCCNCC2)ccc1CN1CCCNCCNCCCNCC1 [AMD3100] | – | – | enhanced tumor reduction induced by bortezomib | prevented the influx of BMDCs in the irradiated tumor
